Results: patent US20210221848A1, “POLYMYXIN DERIVATIVES AND THEIR USE IN COMBINATION THERAPY TOGETHER WITH DIFFERENT ANTIBIOTICS” (priority 2014, published 2021)
Where two headings read alike, the source gives them in different places.

What was measured:
A. baumannii [1] = system: A. baumannii
A. baumannii [2] = experiment: MIC in the presence of […] of rifampicin; format: cell-based, Acinetobacter baumannii; conditions: A. baumannii ATCC BAA-747, Table 5C
[3] = system: E. coli strains with elevated MICs to Polymyxin B; experiment: MIC against strains with elevated MICs to Polymyxin B; format: cell-based, Escherichia coli; conditions: for MIC E. coli 058: strain 058, elevated MIC to Polymyxin B; for MIC E. coli 059: strain 059, elevated MIC to Polymyxin B; for MIC E. coli 060: strain 060, elevated MIC to Polymyxin B; for MIC E. coli 061: strain 061, elevated MIC to Polymyxin B
In short: (§1)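 Colonies picked from an 18-24 hour Mueller-Hinton agar plate are suspended directly and adjusted to 0.5 McFarland. Each MIC is run in duplicate. Values within 2-fold give the lower one; wider spread voids the assay; repeated testing yields the modal value.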

[4] = system: A. baumanii strains with elevated MICs to Polymyxin B; experiment: as above; format: cell-based, Acinetobacter baumannii
In short: as §1

[5] = system: P. aeruginosa strains with elevated MICs to Polymyxin B; experiment: as above; format: cell-based, Pseudomonas aeruginosa; conditions: for MIC P. aeruginosa 065: strain 065, elevated MIC to Polymyxin B; for MIC P. aeruginosa 066: strain 066, elevated MIC to Polymyxin B; for MIC P. aeruginosa 067: strain 067, elevated MIC to Polymyxin B
In short: as §1

[6] = system: K. pneumoniae strains with elevated MICs to Polymyxin B; experiment: as above; format: cell-based, Klebsiella pneumoniae; conditions: for MIC K. pneumoniae 062: strain 062, elevated MIC to Polymyxin B; for MIC K. pneumoniae 063: strain 063, elevated MIC to Polymyxin B; for MIC K. pneumoniae 064: strain 064, elevated MIC to Polymyxin B; for MIC K. pneumoniae 655: strain 655, elevated MIC to Polymyxin B
In short: as §1

E. coli [7] = system: E. coli
P. aeruginosa [8] = system: P. aeruginosa
P. aeruginosa [9] = experiment: MIC in 1:1 (wt:wt) combination with Rifampicin; format: cell-based, Pseudomonas aeruginosa; conditions: 1:1 (wt:wt) with Rifampicin, total drug concentration
Procedure: (§2) The inoculum was prepared by making a direct suspension of isolated colonies (selected from an 18-24 hour Mueller-Hinton agar plate) adjusted to the 0.5 McFarland standard. […] The assays were performed in duplicate. […] In cases where the duplicate values varied by less than 2-fold, the lower of the two values is reported. If a variation of greater than 2-fold was observed, the assay was considered non-valid. Several of the compounds were subjected to multiple tests, and where this is the case, the MIC reflects the modal value obtained.
(§3) MIC values (microgram/mL) refer to the total drug concentration (i.e. test agent plus Rifampicin).

K. pneumoniae = experiment: MIC in 1:1 (wt:wt) combination with Rifampicin; format: cell-based, Klebsiella pneumoniae; conditions: 1:1 (wt:wt) with Rifampicin, total drug concentration
Procedure: as §2, §3

[10] = system: Acinetobacter baumannii NCTC 13301; conditions: mouse lungs, A. baumannii NCTC 13301, SC at 2, 6 and 10 h post-infection, 16 h infection model
Procedure: On Day 0, animals were infected with 0.04 mL inoculum by intranasal instillation into mouse nostrils and were kept in an upright position on a string rack for ˜10 min post-infection. […] The vehicle control group (7 mice) was treated with 0.9% saline for injection at 2, 6 and 10 h post-infection.
Sixteen hours after infection, the mice were euthanized humanely. The lungs of each animal were harvested, homogenized and quantitatively cultured onto CLED agar for CFU determination. Decrease of the total CFU compared to control counts at 16 h post-infection was determined for each dose group.

P. aeruginosa ATCC 27853 = experiment: In vivo efficacy, thigh infection in mice, IV dosing, 9 h model; parameters: species or system Pseudomonas aeruginosa; conditions: mouse thigh
Procedure: Compounds were administered in solution by intravenous (IV) bolus injection into the lateral tail vein. […] At 1 hour post infection, 4 animals were humanely euthanized using pentabarbitone overdose to provide a pre-treatment control group. At 9 hours post infection, the clinical condition of all animals was assessed prior to them being humanely euthanized by pentabarbitone overdose. Animal weight was determined before both thighs were removed and weighed individually. Individual thigh tissue samples were homogenized in ice cold sterile phosphate buffered saline. Thigh homogenates were then quantitatively cultured onto cystine lactose electrolyte deficient (CLED) agar and incubated at 37° C. for 24 hours before colonies were counted.

[11] = system: Acinetobacter baumannii NCTC 13301; conditions: mouse thigh, 16 h model
E. coli [12] = experiment: MIC in the presence of a fixed concentration (2 μg/mL) of Rifampicin; format: cell-based, Escherichia coli; conditions: Rifampicin 2 μg/mL, Table 5C
E. coli [13] = experiment: MIC in 1:1 (wt:wt) combination with Rifampicin; format: cell-based, Escherichia coli; conditions: 1:1 (wt:wt) with Rifampicin, total drug concentration
Procedure: as §2, §3

Substance: Polymyxin B [PMB, reference compound]
- MIC (A. baumannii [1]; A. baumannii ATCC BAA-747): 0.25 µg/mL
- MIC, A. baumannii ATCC BAA-747 (A. baumannii [1]; A. baumannii ATCC BAA-747, absence of a second agent, Table 6B): 0.25 micrograms/mL
- MIC (A. baumannii [1]; A. baumannii NCTC 13424): 0.5 µg/mL
- MIC, A. baumannii NCTC 13424 (A. baumannii [1]; A. baumannii NCTC 13424, absence of a second agent, Table 6B): 0.5 micrograms/mL
- MIC, A. baumannii ATCC BAA-747 (A. baumannii [1]; strain ATCC BAA-747, compound alone): 0.25 micrograms/mL
- MIC, A. baumannii NCTC 13424 (A. baumannii [1]; strain NCTC 13424, compound alone): 0.5 micrograms/mL
- MIC in combination with Rifampicin, A. baumannii ATCC BAA-747 (A. baumannii [2]): 0.03 micrograms/mL
- MIC E. coli 058 ([3]; Table 6D): 4 micrograms/mL
- MIC E. coli 058 ([3]; Table 6F): 4 micrograms/mL
- MIC E. coli 059 ([3]; Table 6D): 4 micrograms/mL
- MIC E. coli 059 ([3]; Table 6F): 4 micrograms/mL
- MIC E. coli 060 ([3]; Table 6D): 4 micrograms/mL
- MIC E. coli 060 ([3]; Table 6F): 4 micrograms/mL
- MIC E. coli 061 ([3]; Table 6D): 16 micrograms/mL
- MIC E. coli 061 ([3]; Table 6F): 16 micrograms/mL
- MIC A. baumannii 053 ([4]; strain 053, elevated MIC to Polymyxin B, Table 6D): 128 micrograms/mL
- MIC A. baumanii 053 ([4]; strain 053, elevated MIC to Polymyxin B, Table 6F): 128 micrograms/mL
- MIC A. baumannii 056 ([4]; strain 056, elevated MIC to Polymyxin B, Table 6D): 32 micrograms/mL
- MIC A. baumanii 056 ([4]; strain 056, elevated MIC to Polymyxin B, Table 6F): 32 micrograms/mL
- MIC A. baumannii 068 ([4]; strain 068, elevated MIC to Polymyxin B, Table 6D): 8 micrograms/mL
- MIC A. baumanii 068 ([4]; strain 068, elevated MIC to Polymyxin B, Table 6F): 8 micrograms/mL
- MIC A. baumannii 070 ([4]; strain 070, elevated MIC to Polymyxin B, Table 6D): 32 micrograms/mL
- MIC A. baumanii 070 ([4]; strain 070, elevated MIC to Polymyxin B, Table 6F): 32 micrograms/mL
- MIC P. aeruginosa 065 ([5]; Table 6D): 4 micrograms/mL
- MIC P. aeruginosa 065 ([5]; Table 6F): 4 micrograms/mL
- MIC P. aeruginosa 066 ([5]; Table 6D): 8 micrograms/mL
- MIC P. aeruginosa 066 ([5]; Table 6F): 8 micrograms/mL
- MIC P. aeruginosa 067 ([5]; Table 6D): 128 micrograms/mL
- MIC P. aeruginosa 067 ([5]; Table 6F): 128 micrograms/mL
- MIC K. pneumoniae 062 ([6]; Table 6D): 128 micrograms/mL
- MIC K. pneumoniae 062 ([6]; Table 6F): 128 micrograms/mL
- MIC K. pneumoniae 063 ([6]; Table 6D): 32 micrograms/mL
- MIC K. pneumoniae 063 ([6]; Table 6F): 32 micrograms/mL
- MIC K. pneumoniae 064 ([6]; Table 6D): 8 micrograms/mL
- MIC K. pneumoniae 064 ([6]; Table 6F): 8 micrograms/mL
- MIC K. pneumoniae 655 ([6]; Table 6D): 32 micrograms/mL
- MIC K. pneumoniae 655 ([6]; Table 6F): 32 micrograms/mL
- MIC (E. coli [7]; E. coli ATCC 25922): 0.25 µg/mL
- MIC, E. coli ATCC 25922 (E. coli [7]; E. coli ATCC 25922, absence of a second agent, Table 6B): 0.25 micrograms/mL
- MIC (E. coli [7]; E. coli NCTC 13441): 0.25 µg/mL
- MIC, E. coli NCTC 13441 (E. coli [7]; E. coli NCTC 13441, absence of a second agent, Table 6B): 0.25 micrograms/mL
- MIC, E. coli ATCC 25922 (E. coli [7]; strain ATCC 25922, compound alone): 0.25 micrograms/mL
- MIC E. coli CCUG 59342 (E. coli [7]; strain CCUG 59342, compound alone): 0.125 micrograms/mL
- MIC (P. aeruginosa [8]; P. aeruginosa ATCC 27853): 0.5 µg/mL
- MIC, P. aeruginosa ATCC 27853 (P. aeruginosa [8]; P. aeruginosa ATCC 27853, absence of a second agent, Table 6B): 0.5 micrograms/mL
- MIC (P. aeruginosa [8]; P. aeruginosa CCUG 59347): 0.5 µg/mL
- MIC, P. aeruginosa CCUG 59347 (P. aeruginosa [8]; P. aeruginosa CCUG 59347, absence of a second agent, Table 6B): 0.5 micrograms/mL
- MIC, P. aeruginosa ATCC 27853 (P. aeruginosa [8]; strain ATCC 27853, compound alone): 0.5 micrograms/mL
- MIC, P. aeruginosa CCUG 59347 (P. aeruginosa [8]; strain CCUG 59347, compound alone): 0.5 micrograms/mL
- MIC in 1:1 combination with rifampicin, P. aeruginosa 063 (P. aeruginosa [9]; P. aeruginosa 063): 16 microgram/mL
- MIC in 1:1 combination with rifampicin, P. aeruginosa 068 (P. aeruginosa [9]; P. aeruginosa 068): 1 microgram/mL
- MIC in 1:1 combination with rifampicin, K. pneumoniae 062 (K. pneumoniae; K. pneumoniae 062): 1 microgram/mL
- MIC in 1:1 combination with rifampicin, K. pneumoniae CCUG 59348 (K. pneumoniae; K. pneumoniae CCUG 59348): 1 microgram/mL
- Mean log10 CFU reduction vs. control ([10]; 2.6 mg/kg/dose free base): 0.79 log10 CFU
- Mean log10 CFU reduction vs. control ([10]; 8.6 mg/kg/dose free base): 0.58 log10 CFU
- Mean log10 CFU reduction vs. control ([10]; 17.2 mg/kg/dose free base): 0.54 log10 CFU
- Mean log10 CFU reduction vs. control ([10]; 25.8 mg/kg/dose free base): 1.10 log10 CFU
- Log reduction from vehicle (CFU/g) (P. aeruginosa ATCC 27853; dose 0.85 mg/kg drug base IV at 1, 3.5 and 6 h post-infection): 1.19 log10 CFU/g
- Log reduction from vehicle (CFU/g) (P. aeruginosa ATCC 27853; dose 3.4 mg/kg drug base IV at 1, 3.5 and 6 h post-infection): 4.23 log10 CFU/g
- Mean log10 CFU reduction vs. control ([11]; 0.215 mg/kg/dose free base SC at 2, 6 and 10 h post-infection): 0.17 log10 CFU
- Mean log10 CFU reduction vs. control ([11]; 0.86 mg/kg/dose free base SC at 2, 6 and 10 h post-infection): 1.64 log10 CFU
- Mean log10 CFU reduction vs. control ([11]; 2.6 mg/kg/dose free base SC at 2, 6 and 10 h post-infection): 5.44 log10 CFU
- Mean log10 CFU reduction vs. control ([11]; 8.6 mg/kg/dose free base SC at 2, 6 and 10 h post-infection): 6.15 log10 CFU
- Mean log10 CFU reduction vs. control ([11]; 17.2 mg/kg/dose free base SC at 2, 6 and 10 h post-infection): 6.53 log10 CFU
- MIC in combination with Rifampicin, E. coli ATCC 25922 (E. coli [12]; E. coli ATCC 25922): ≤0.015 micrograms/mL
- MIC in combination with Rifampicin, E. coli NCTC 13441 (E. coli [12]; E. coli NCTC 13441): 0.03 micrograms/mL
- MIC in 1:1 combination with rifampicin, E. coli 058 (E. coli [13]; E. coli 058): 1 microgram/mL
- MIC in 1:1 combination with rifampicin, E. coli 059 (E. coli [13]; E. coli 059): ≤0.5 microgram/mL
- MIC in 1:1 combination with rifampicin, E. coli 060 (E. coli [13]; E. coli 060): 1 microgram/mL
- MIC in 1:1 combination with rifampicin, E. coli ATCC 25922 (E. coli [13]; E. coli ATCC 25922): ≤0.5 microgram/mL
